Results taken from patent publication US8633167B2, “Method for the protection of trees” (Syngenta Crop Protection LLC, priority 2006, dated 2014).

System: Ips engravers beetles
Experiment: Bolt study (Example 1): Ips attack and gallery construction on loblolly pine bolts cut after trunk injection
Format: in vivo
Details: for reduction of length of egg galleries compared to check trees / reduction of total number of egg galleries compared to check trees: May
Excerpt: The intent of the study was to evaluate the efficacy of systemic injections of emamectin benzoate in reducing success of pine bark beetle attacks on loblolly pine and determine the duration of treatment efficacy. As SPB populations were extremely low in Texas in 2004, Ips engravers beetles were used as indicator species.
Two 20-year-old, recently thinned loblolly pine plantations were selected on land owned by Temple-Inland Forest Products Corporation about 5 km south of Wells (Angelina County), Tex. Trees in one plantation were injected for use in a bolt study (Example 1). Trees in a 0.2 ha section of the second plantation were injected as part of a single-tree protection study (Example 2). A staging area also was set up in the second plantation where bolts from the first plantation were exposed to bark beetles and wood borers.
Seventy-five loblolly pine trees, Pinus taeda L., 15-20 cm diameter at breast height (DBH), were selected in March 2004. Each treatment was injected into four cardinal points about 0.3 m above the ground on each of 15 trees in April (16th-23rd) using the new Arborjet Tree IV™ microinfusion system (Arborjet, Inc. Woburn, Mass.). The treatments included: • 1) Emamectin benzoate (Denim®, 1.92% ai, Syngenta Crop Science)—Denim® was mixed 1:1 with methanol and applied at 18.6 ml solution per inch of tree diameter at breast height (DBH) (=0.2 g active per inch DBH). • 2) Check (untreated)
After 1 (May 24), 3 (July 19) and 5 (September) months post-injection, 5 trees of each treatment were felled and two 1.5 m long bolts were removed from the 3 m and 8 m heights of the bole. The bolts were transported to a nearby plantation that was recently thinned and contained fresh slash material. Each bolt was placed about 1 m apart on discarded, dry pine bolts to maximize surface area available for colonization as well as to discourage predation by ground and litter-inhabiting organisms. To facilitate timely bark beetle colonization, packets of bark beetle pheromones (racemic ipsdienol + lanerione combination, ipsenol or cis-verbenol; Phero Tech, Inc., Delta, BC, Canada) were attached separately to three 1 m stakes evenly spaced in the study area. Racemic ipsdienol and cis-verbenol were used with the second and third series of bolts deployed in July and September, respectively. The packets were removed after 2 weeks when signs of attacks (boring dust) were observed on most test bolts, signaling that naturally-produced pheromones were present.
A clear panel of acetate (10 cm wide by 25 cm long) was attached to the center of each bolt after deployment of bolts to monitor arrival of bark beetles. The top surface of each panel was coated entirely with Stikem Special® trapping compound (Michel and Pelton, Emeryville, Calif.). The traps were left in place for two weeks.
Each series of bolts were retrieved about 3 weeks after deployment, after observing many cerambycid egg niches on the bark surface of most bolts. There was concern that if cerambycid larvae were allowed to develop too long, their feeding activity would obscure or obliterate the Ips galleries. Thus, each series of bolts were retrieved and stored temporarily in a TFS seedling cooler (˜45° F.) to slow cerambycid development until the bolts could be evaluated.
In the laboratory, two 10×50 cm strips (total=1000 cm^2) of bark were removed from each bolt. […]

[1] = 1 Month Post-Injection (May), bolt height 3 m
[2] = 1 Month Post-Injection (May), bolt height 8 m
[3] = 3 Months Post-Injection (July), bolt height 3 m
[4] = 3 Months Post-Injection (July), bolt height 8 m
[5] = 5 Months Post-Injection (September), bolt height 3 m
[6] = 5 Months Post-Injection (September), bolt height 8 m

Substance: 4″-deoxy-4″-N-methylamino avermectin B1a/B1b [Emamectin]
- Length of Egg Galleries Total Length [1]: 30.7 a cm
- Length of Egg Galleries With Brood % Total [1]: 49.5%
- Length of Egg Galleries With Brood cm [1]: 15.2 a cm
- Length of Egg Galleries Without Brood % Total [1]: 50.5%
- Length of Egg Galleries Without Brood cm [1]: 15.5 a cm
- Mean # of Ips caught/Trap [1]: 3.8 a
- Mean # of Nuptial Chambers Without Egg Galleries No. [1]: 14.6 c
- Mean # of Nuptial Chambers Without Egg Galleries Total [1]: 78.5
- Mean # of Nuptial Chambers with Egg Galleries No. [1]: 4.0 a
- Mean # of Nuptial Chambers with Egg Galleries Total [1]: 21.5
- Mean Total # of Nuptial Chambers [1]: 18.6 a
- Number of Egg Galleries Total Galleries [1]: 12.4 a
- Number of Egg Galleries With Brood % Total [1]: 19.4%
- Number of Egg Galleries With Brood No. [1]: 2.4 a
- Number of Egg Galleries Without Brood % Total [1]: 80.6%
- Number of Egg Galleries Without Brood No. [1]: 10.0 a
- Length of Egg Galleries Total Length [2]: 13.5 a cm
- Length of Egg Galleries With Brood % Total [2]: 8.9%
- Length of Egg Galleries With Brood cm [2]: 1.2 a cm
- Length of Egg Galleries Without Brood % Total [2]: 91.1%
- Length of Egg Galleries Without Brood cm [2]: 12.3 a cm
- Mean # of Ips caught/Trap [2]: 4.8 a
- Mean # of Nuptial Chambers Without Egg Galleries No. [2]: 9.0 c
- Mean # of Nuptial Chambers Without Egg Galleries Total [2]: 69.2
- Mean # of Nuptial Chambers with Egg Galleries No. [2]: 4.0 a
- Mean # of Nuptial Chambers with Egg Galleries Total [2]: 30.8
- Mean Total # of Nuptial Chambers [2]: 13.0 ab
- Number of Egg Galleries Total Galleries [2]: 4.2 a
- Number of Egg Galleries With Brood % Total [2]: 4.8%
- Number of Egg Galleries With Brood No. [2]: 0.2 a
- Number of Egg Galleries Without Brood % Total [2]: 95.2%
- Number of Egg Galleries Without Brood No. [2]: 4.0 a
- Length of Egg Galleries Total Length [3]: 0.0 a cm
- Length of Egg Galleries With Brood cm [3]: 0.0 a cm
- Length of Egg Galleries Without Brood cm [3]: 0.0 a cm
- Mean # of Ips caught/Trap [3]: 1.8 a
- Mean # of Nuptial Chambers Without Egg Galleries No. [3]: 11.0 b
- Mean # of Nuptial Chambers Without Egg Galleries Total [3]: 100.0
- Mean # of Nuptial Chambers with Egg Galleries No. [3]: 0.0 a
- Mean # of Nuptial Chambers with Egg Galleries Total [3]: 0.0
- Mean Total # of Nuptial Chambers [3]: 11.0 ab
- Number of Egg Galleries Total Galleries [3]: 0.0 a
- Number of Egg Galleries With Brood No. [3]: 0.0 a
- Number of Egg Galleries Without Brood No. [3]: 0.0 a
- Length of Egg Galleries Total Length [4]: 0.0 a cm
- Length of Egg Galleries With Brood cm [4]: 0.0 a cm
- Length of Egg Galleries Without Brood cm [4]: 0.0 a cm
- Mean # of Ips caught/Trap [4]: 3.4 a
- Mean # of Nuptial Chambers Without Egg Galleries No. [4]: 8.4 c
- Mean # of Nuptial Chambers Without Egg Galleries Total [4]: 100.0
- Mean # of Nuptial Chambers with Egg Galleries No. [4]: 0.0 a
- Mean # of Nuptial Chambers with Egg Galleries Total [4]: 0.0
- Mean Total # of Nuptial Chambers [4]: 8.4 b
- Number of Egg Galleries Total Galleries [4]: 0.0 a
- Number of Egg Galleries With Brood No. [4]: 0.0 a
- Number of Egg Galleries Without Brood No. [4]: 0.0 a
- Length of Egg Galleries Total Length [5]: 0.0 a cm
- Length of Egg Galleries With Brood cm [5]: 0.0 a cm
- Length of Egg Galleries Without Brood cm [5]: 0.0 a cm
- Mean # of Ips caught/Trap [5]: 1.2 a
- Mean # of Nuptial Chambers Without Egg Galleries No. [5]: 3.8 b
- Mean # of Nuptial Chambers Without Egg Galleries Total [5]: 100.0
- Mean # of Nuptial Chambers with Egg Galleries No. [5]: 0.0 a
- Mean # of Nuptial Chambers with Egg Galleries Total [5]: 0.0
- Mean Total # of Nuptial Chambers [5]: 3.8 a
- Number of Egg Galleries Total Galleries [5]: 0.0 a
- Number of Egg Galleries With Brood No. [5]: 0.0 a
- Number of Egg Galleries Without Brood No. [5]: 0.0 a
- Length of Egg Galleries Total Length [6]: 0.0 a cm
- Length of Egg Galleries With Brood cm [6]: 0.0 a cm
- Length of Egg Galleries Without Brood cm [6]: 0.0 a cm
- Mean # of Ips caught/Trap [6]: 0.4 a
- Mean # of Nuptial Chambers Without Egg Galleries No. [6]: 4.4 b
- Mean # of Nuptial Chambers Without Egg Galleries Total [6]: 100.0
- Mean # of Nuptial Chambers with Egg Galleries No. [6]: 0.0 a
- Mean # of Nuptial Chambers with Egg Galleries Total [6]: 0.0
- Mean Total # of Nuptial Chambers [6]: 4.4 a
- Number of Egg Galleries Total Galleries [6]: 0.0 a
- Number of Egg Galleries With Brood No. [6]: 0.0 a
- Number of Egg Galleries Without Brood No. [6]: 0.0 a
- construction of egg galleries (July and September, all bolts): completely prevented
- attacks unsuccessful (July and September, both heights): 100%
- reduction of length of egg galleries compared to check trees (3 m): 94%
- reduction of total number of egg galleries compared to check trees (3 m): 81%
- reduction of length of egg galleries compared to check trees (8 m): 99%
- reduction of total number of egg galleries compared to check trees (8 m): 96%
- attacks unsuccessful (bolts evaluated in May, 3 m height): 79%
- attacks unsuccessful (bolts evaluated in May, 8 m height): 69%
- preventing successful attacks by Ips bark beetles and cerambycids (both examples, one, three and five months after injection): highly effective
